According to US20230357179A1, “RAF KINASE INHIBITORS AND METHODS OF USE THEREOF” (Deciphera Pharmaceuticals, LLC, priority 2021, published 2023):

How the values were obtained:
[1] = target: T1, C-Raf kinase (Homo sapiens, UniProt P04049, Y340D/Y341D); test: Biochemical assay for C-Raf.1 (coupled pyruvate kinase/lactate dehydrogenase); conditions: read-out: CRAF.1 IC50
T1 construct: Y340D,; GST (N); purchased Sigma
Summary of the method: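 C-Raf (0.43 nM) with MEK 30.1 nM and 1 mM ATP in Tris pH 7.5/MgCl2 buffer, activity coupled via PK/LDH to NADH oxidation (A340), 6 h at 30° C. Rates from 4–5 h window converted to % inhibition versus controls; IC50 by four-parameter fit, 1% DMSO.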

[2] = system: A375 cells; test: A375 cell proliferation assay (1), resazurin, 96-well; assay type: cell-based; conditions: Homo sapiens, A-375, inhibition of cell proliferation
Summary of the method: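 Viability was read by resazurin fluorescence at 540 nm excitation and 600 nm emission, using a 440 μM solution added for 5–6 h at the end of culture. IC50 came from the curve fit.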

[3] = system: WM3928 cells; test: WM3928 cell proliferation assay (1), resazurin, 96-well; assay type: cell-based; conditions: inhibition of cell proliferation
Procedure: WM3928 Cell Proliferation Assay (1)
WM3928 cells (#WM3928-01-0001) are obtained from Rockland Immunochemicals Inc (Gilbertsville, PA). Briefly, cells were grown in MCDB 153 medium (Sigma, #M7403, St. Louis, MO) supplemented with 20% Leibovitz's L-15 (ThermoFisher #11415-064, Waltham, MA), 2% heat inactivated fetal bovine serum (ThermoFisher, #A3840001, Waltham, MA), 5 μg/mL Insulin (Bovine Pancreas) (Sigma, #I0516, St. Louis, MO), 1.68 mM Calcium Chloride (Sigma, #C-34006, St. Louis, MO) and 1% Penicillin/Streptomycin/L-Glutamine (ThermoFisher #10378016, Waltham, MA) at 37° C., 5% CO2, and 95% humidity. Cells are expanded until reaching 70-95% confluency at which point they are subcultured or harvested for assay use. A serial dilution of test compound is dispensed into a 96-well black clear bottom plate in triplicate. Three thousand cells are added per well in 200 μL complete growth medium in the 96-well plate. Plates are incubated for 67-72 hours at 37° C., 5% CO2, and 95% humidity. At the end of the incubation, 40 μL of a 440 μM solution of resazurin (Sigma, #199303, St. Louis, MO) in PBS is added to each well of the plate and plates are incubated for an additional 6-7 hours at 37° C., 5% CO2, and 95% humidity. Plates are read on a Synergy2 or equivalent reader (Biotek, Winooski VT) using an excitation of 540 nm and an emission of 600 nm. Data is analyzed using Prism software (GraphPad, San Diego, CA) to calculate IC50 values.

[4] = system: Miapaca-2 cells; test: MiaPaca-2 cell proliferation assay (1), resazurin, 96-well; assay type: cell-based; conditions: Homo sapiens, MIA PaCa-2, inhibition of cell proliferation
Summary of the method: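 Three thousand cells per well in DMEM with 10% FBS and 2.5% horse serum exposed to serially diluted compound in triplicate for 67-72 h at 37 °C, 5% CO2. Viability by resazurin (additional 5-6 h), fluorescence ex 540/em 600 nm; IC50 calculated.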

T1 sequence (P04049 307-648 Y340D/Y341D): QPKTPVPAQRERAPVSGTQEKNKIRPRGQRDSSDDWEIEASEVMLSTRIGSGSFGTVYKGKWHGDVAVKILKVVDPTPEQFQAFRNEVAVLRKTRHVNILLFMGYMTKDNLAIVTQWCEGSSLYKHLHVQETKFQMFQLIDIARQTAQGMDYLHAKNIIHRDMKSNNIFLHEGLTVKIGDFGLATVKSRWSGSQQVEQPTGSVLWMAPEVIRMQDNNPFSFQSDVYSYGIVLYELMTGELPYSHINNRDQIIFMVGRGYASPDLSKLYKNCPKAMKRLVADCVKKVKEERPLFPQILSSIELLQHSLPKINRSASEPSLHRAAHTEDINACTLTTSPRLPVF

| Compound | IC50 [1] | IC50 [2] | IC50 [3] | IC50 [4] |
| --- | --- | --- | --- | --- |
| Cc1ncc(NC(=O)NCCC2(C)CC2)cc1-c1cc(OCCO)nc(-c2ccnc(NC(=O)C3CC3)c2)c1 [Example 113] | ≤ 100 nM | 100 to 500 nM | ≤ 100 nM | 1000 to 10000 nM |
| Cc1cc(F)c(NC(=O)NCC(C)C)cc1-c1cc(OCCO)nc(-c2ccnc(NC(=O)C3CC3)c2)c1 [Example 99] | ≤ 100 nM | 1000 to 10000 nM | 100 to 500 nM | 1000 to 10000 nM |
